Patent US12576099B2, “Ribose-modified cap analog and use thereof” (Beijing Youcare Kechuang Pharmaceutical Technology Co., Ltd., priority 2024, dated 2026)

Experiments:
T7 RNA polymerase [1] = molecular target: T1, T7 RNA polymerase (Escherichia phage T7, UniProt P00573); assay: In vitro transcription yield of mRNA using cap analogs; assay type: biochemical; conditions: for Yield per unit template: in vitro transcription, 1 μg DNA template, 37° C., 2 hours
Description: • (1) Capping synthesis using cap analogs
The plasmid was first linearized with plasmid linearizing enzyme, and then the linearized plasmid was purified. • (2) In vitro transcription and synthesis of mRNA
(§1) During the experiment, the volume of materials required for the system was first calculated, and then sample addition was conducted. The system was first added with sterile enzyme-free water, followed by the sequential addition of 10× buffer, NTPs, and cap analogs, mixed well, and gently centrifuged. Nuclease inhibitors, inorganic pyrophosphatase, T7RNA polymerase, and linearized DNA templates were then added thereto. The system was mixed well, gently centrifuged, and incubated at 37° C. After 2 hours of incubation, the system was added with 1 U of DNase I and incubated at 37° C. for another 30 minutes. The mRNA precipitate was then washed with 75% ethanol, and after the ethanol was briefly evaporated to dryness, the mRNA was redissolved in sterile enzyme-free water. • (3) The transcription product was purified, and the in vitro transcription yield of mRNA was recorded. • (4) The obtained mRNA was subjected to an annealing reaction with a probe.

T7 RNA polymerase [2] = molecular target: T1, T7 RNA polymerase; assay: Capping rate of mRNA transcription initiated by cap analogs (LC-MS); assay type: biochemical; conditions: for Capping rate: LC-MS of mRNA 5′ fragment
Description: as §1
The annealing reaction was performed in a PCR instrument: 95° C. for 5 minutes; 65° C. for 2 minutes; 55° C. for 2 minutes; 40° C. for 2 minutes; 22° C. for 2 minutes. • (5) Magnetic bead pretreatment and probe binding: 100 μL of magnetic beads was placed on a magnetic frame for pretreatment. The magnetic bead solution was added with 120 μL of sample and incubated at room temperature for 30 minutes with slow mixing. • (6) mRNA splicing and obtaining the mRNA 5′ single-strand sequence bound to the probe
The mixture was added with 20 μL of RNase H (5 U/μL) and incubated at 37° C. for 3 hours with mixing every half hour. After incubation, the magnetic beads were washed and then added with 100 μL of 75% methanol heated to 80° C. The mixture was heated to 80° C. on a heating plate, held for 3 minutes, then placed on a magnetic frame to aspirate the supernatant, and dried at room temperature for 45 minutes to a volume of 10 μL using a centrifugal evaporator. The sample was then resuspended in 50 μL of 100 μM EDTA/1% MeOH and ready for LC-MS analysis to determine the capping of RNA in the transcription reaction. Since there is a significant difference in molecular weight between capped and uncapped bases, the capping rate of mRNA transcription initiated by different cap analogs can be determined based on the difference in molecular mass.

[3] = Characterization of lipid nanoparticles encapsulating Fluc-mRNA prepared from different cap structures; assay type: physicochemical; conditions: for Particle size: LNP (YK-009/DSPC/cholesterol/DMG-PEG2000) with Fluc-mRNA transcribed using the named cap analog; for PDI: LNP with Fluc-mRNA transcribed using the named cap analog; for EE: encapsulation efficiency of LNP with Fluc-mRNA transcribed using the named cap analog
Description: Cationic lipid YK-009 (Beijing Youcare Kechuang Pharmaceutical Technology Co., Ltd.), DSPC (AVT (Shanghai) Pharmaceutical Technology Co., Ltd.), cholesterol (AVT (Shanghai) Pharmaceutical Technology Co., Ltd.), and DMG-PEG2000 were dissolved in ethanol at a molar ratio of 49:10:39.5:1.5, and the mRNA was diluted in 50 mM citrate buffer (pH=4). The ethanol lipid solution was mixed with the Fluc-mRNA aqueous solution prepared from different cap structures at a volume ratio of 1:3 using a microfluidic device at a flow rate of 10 mL/min to prepare LNPs at a weight ratio of total lipid to mRNA of approximately 15:1.
The resulting liposomes were diluted to 10-fold volume with PBS, and then ultrafiltered with a 300 KDa ultrafiltration tube to remove ethanol. The volume was then fixed to a certain volume with PBS. Finally, the LNPs were filtered through a 0.2 μm sterile filter to obtain an LNP preparation encapsulating Fluc-mRNA using YK-009/DSPC/cholesterol/DMG-PEG2000 (at a molar ratio of 49:10:39.5:1.5).
The particle size and polydispersity index (PDI) were determined by dynamic light scattering using a Malvern laser particle size analyzer. 10 μL of the liposome solution was taken, diluted to 1 mL with RNase-free deionized water, and added to a sample pool. Each sample was measured in triplicate. The measurement conditions were: a scattering angle of 90° and a temperature of 25° C. The encapsulation efficiency of LNPs was determined using the Quant-iT RiboGreen RNA Quantification Kit (Thermo Fisher Scientific, UK) according to the manufacturer's instructions.

HEK293T cells = assay: Translation efficiency of different capped luciferase mRNAs; assay type: cell-based; conditions: for Multiple of m6A (relative fluorescence intensity): relative to m6A; for Relative fluorescence intensity: HEK293T, 0.5 μg mRNA per well, 24 hours, proportional to translation efficiency
Description: • (1) HEK293T cells were cultured in DMEM medium containing 10% FBS and penicillin/streptomycin at 37° C. with 5% CO2. • (2)Cells in the culture dish were digested and counted, then spread in a 96-well plate at 10,000 cells per well, and cultured overnight until the cells adhered to the wall. • (3) When the cell density reached approximately 80%, transfection was performed by adding 0.5 μg of mRNA sample and Lipofectamine MessengerMAX Transfection Reagent (Invitrogen) per well according to the manufacturer's instructions. • (4) After the transfected cells were cultured at 37° C. with 5% CO2 for 24 hours, the growth medium was removed from the cells to be tested, and the cells were rinsed with PBS. After centrifugation to remove PBS, 50 μL of 1× lysis buffer was added. The cells and all liquid were transferred to a microcentrifuge tube and centrifuged. • (5) 20 μL of sample was taken and added to 100 μL of Dual-Lumi™ II Luciferase Assay Reagent pre-equilibrated to room temperature, and mixed appropriately. • (6) The mixture was incubated at room temperature (approximately 25° C.) for 5 minutes to stabilize the luminescence signal. Chemiluminescence was detected using a multifunctional microplate reader with a function for detecting chemiluminescence, and the data were recorded.
The relative fluorescence intensity is proportional to the translation efficiency of mRNA.

DCP2 enzyme = molecular target: T2, DCP2 enzyme (Schizosaccharomyces pombe, UniProt O13828); assay: Decapping enzyme stability test; assay type: biochemical; conditions: for Decapping rate (%) of DCP2 enzyme: 50 U mRNA decapping enzyme, 37° C., 45 minutes
T2 construct: purchased New England Biolabs
T2 sequence (O13828 1-243 limits assumed): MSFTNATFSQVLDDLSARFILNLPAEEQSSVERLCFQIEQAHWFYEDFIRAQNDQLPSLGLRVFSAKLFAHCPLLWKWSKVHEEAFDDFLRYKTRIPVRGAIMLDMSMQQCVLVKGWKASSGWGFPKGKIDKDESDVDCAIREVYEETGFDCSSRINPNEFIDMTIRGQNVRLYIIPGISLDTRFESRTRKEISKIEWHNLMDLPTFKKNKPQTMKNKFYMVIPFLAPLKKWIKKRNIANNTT
T2 sequence (Q9P805 1-127 partner): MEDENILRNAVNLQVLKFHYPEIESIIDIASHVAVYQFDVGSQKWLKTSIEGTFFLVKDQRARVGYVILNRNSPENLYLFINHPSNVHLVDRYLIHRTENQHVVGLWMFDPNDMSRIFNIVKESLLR
T2 sequence (Q10108 155-180 partner limits assumed): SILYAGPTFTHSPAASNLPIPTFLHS
Description: […] of RNA purified by polyacrylamide gel electrophoresis (PAGE) was subjected to an enzymatic reaction with 50 U of mRNA decapping enzyme (New England Biolabs) and 1×MDE buffer at 37° C. for 45 minutes. The enzymatic reactants were subjected to PAGE and stained with SYBR Green II (Lonza), followed by observation of the post-electrophoresis gel image on a Typhoon FLA 7000 (GE Healthcare) instrument. The electrophoresis band intensity ratio of RNA capping to RNA decapping was counted using ImageQuant (GE Healthcare) software, and the decapping rate of the decapping enzyme was calculated.

T1 sequence (P00573 whole entry): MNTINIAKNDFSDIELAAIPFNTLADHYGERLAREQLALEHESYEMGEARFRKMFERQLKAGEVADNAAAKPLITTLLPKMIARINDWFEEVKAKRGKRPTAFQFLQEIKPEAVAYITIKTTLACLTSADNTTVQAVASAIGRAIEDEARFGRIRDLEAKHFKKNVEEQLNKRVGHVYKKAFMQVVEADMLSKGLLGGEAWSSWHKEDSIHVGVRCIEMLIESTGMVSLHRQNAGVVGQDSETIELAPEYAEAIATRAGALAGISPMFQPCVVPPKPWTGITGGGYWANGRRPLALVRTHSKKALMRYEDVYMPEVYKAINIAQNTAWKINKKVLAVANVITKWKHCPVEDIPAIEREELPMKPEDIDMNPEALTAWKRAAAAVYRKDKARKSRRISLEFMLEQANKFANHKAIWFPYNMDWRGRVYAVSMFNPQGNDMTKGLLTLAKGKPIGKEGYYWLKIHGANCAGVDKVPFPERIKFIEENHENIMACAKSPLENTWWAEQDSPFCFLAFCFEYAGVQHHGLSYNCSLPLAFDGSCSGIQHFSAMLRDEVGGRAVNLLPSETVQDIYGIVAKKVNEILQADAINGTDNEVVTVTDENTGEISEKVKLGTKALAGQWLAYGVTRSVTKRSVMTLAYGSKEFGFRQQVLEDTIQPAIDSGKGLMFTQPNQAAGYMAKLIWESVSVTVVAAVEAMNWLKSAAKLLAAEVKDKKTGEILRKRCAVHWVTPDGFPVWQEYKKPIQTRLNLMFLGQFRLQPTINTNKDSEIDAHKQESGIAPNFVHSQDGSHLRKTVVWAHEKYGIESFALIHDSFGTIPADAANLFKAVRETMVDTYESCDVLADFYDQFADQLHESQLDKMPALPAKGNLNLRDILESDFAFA

Compound | Yield per unit template (T7 RNA polymerase [1]) | Increase relative to 5227 (in vitro transcription yield) (T7 RNA polymerase [1]) | Capping rate (T7 RNA polymerase [2]) | Increase relative to 5227 (capping rate) (T7 RNA polymerase [2]) | Particle size [3] | PDI [3] | EE [3] | Multiple of m6A (relative fluorescence intensity) (HEK293T cells) | Decapping rate (%) of DCP2 enzyme (DCP2 enzyme) | Decrease relative to N-7113 (decapping rate) (DCP2 enzyme) | Relative fluorescence intensity (HEK293T cells)
COC1[C@H](n2cnc3c(N)ncnc32)O[C@H](COP(=O)(O)OP(=O)(O)OP(=O)(O)OC[C@@]23COC([C@H]([n+]4cn(C)c5c(=O)[nH]c(N)nc54)O2)[C@H]3O)[C@H]1OP(=O)(O)OCC1OC(n2cnc3c(=O)[nH]c(N)nc32)C(O)C1O (stereo partly drawn) [Compound 14, reference compound] | 123.2 µg | −8.2% | 78.3% | 8.9% | 79.35 nm | 0.073 | 94.2% | 2.9 | 26.8% | 17.0% | 
CO[C@@H]1[C@H](OP(=O)(O)OC[C@H]2O[C@@H](n3cnc4c(=O)[nH]c(N)nc43)[C@H](O)[C@@H]2O)[C@@H](COP(=O)(O)OP(=O)(O)OP(=O)(O)OC[C@H]2O[C@@H]([n+]3cn(C)c4c(=O)[nH]c(N)nc43)[C@H](O)[C@]2(F)CN(C)C)O[C@H]1n1cnc2c(N)ncnc21 [YK-CAP-104] | 73.2 µg | −45.5% | 77.2% | 7.4% | 69.24 nm | 0.047 | 95.7% | 2.1 | 46.1% | −2.3% | 0.81
CO[C@@H]1[C@H](OP(=O)(O)OC[C@H]2O[C@@H](n3cnc4c(=O)[nH]c(N)nc43)[C@H](O)[C@@H]2O)[C@@H](COP(=O)(O)OP(=O)(O)OP(=O)(O)OC[C@H]2O[C@@H]([n+]3cn(C)c4c(=O)[nH]c(N)nc43)[C@H](O)[C@]2(C)C#N)O[C@H]1n1cnc2c(N)ncnc21 [YK-CAP-105] | 82.3 µg | −38.7% | 69.3% | −3.6% | 77.22 nm | 0.063 | 95.7% | 1.9 | 33.9% | 9.9% | 0.72
CO[C@@H]1[C@H](OP(=O)(O)OC[C@H]2O[C@@H](n3cnc4c(=O)[nH]c(N)nc43)[C@H](O)[C@@H]2O)[C@@H](COP(=O)(O)OP(=O)(O)OP(=O)(O)OC[C@H]2O[C@@H](C[n+]3cn(C)c4c(=O)[nH]c(N)nc43)[C@H](O)[C@@H]2O)O[C@H]1n1cnc2c(N)ncnc21 [YK-CAP-103] | 88.0 µg | −34.4% | 71.1% | −1.1% | 67.24 nm | 0.053 | 94.7% | 2.0 | 36.5% | 7.3% | 0.77
CO[C@@H]1[C@H](OP(=O)(O)OC[C@H]2O[C@@H](n3cnc4c(=O)[nH]c(N)nc43)[C@H](O)[C@@H]2O)[C@@H](COP(=O)(O)OP(=O)(O)OP(=O)(O)OC[C@H]2OC([n+]3cn(C)c4c(=O)[nH]c(N)nc43)[C@H](NC(C)=O)[C@@H](O)[C@@H]2O)O[C@H]1n1cnc2c(N)ncnc21 (stereo partly drawn) [YK-CAP-102] | 44.1 µg | −67.1% | 30.2% | −58.0% | 73.22 nm | 0.055 | 95.3% | 0.9 | 41.2% | 2.6% | 0.34
